Reference: patent US12485106B2, “Methods of treating fibrotic liver diseases or conditions with indeglitazar” (PLEIOGENIX INC., priority 2023, dated 2025)

What was measured:
[1] = Parallel Artificial Membrane Permeability-Blood Brain Barrier Assay (PMBBB-096); format: in vitro ADME; conditions: compared to promazine HCl (high permeability control)
Description: Indeglitazar was evaluated using the Parallel Artificial Membrane Permeability-Blood Brain Barrier Assay (PMBBB-096; BioAssay Systems, Hayward, CA).

[2] = tested on: carbon tetrachloride (CCl4)-treated mice model of human NAFLD, NASH, and hepatic fibrosis; assay: CCl4-treated mouse model of human NAFLD, NASH and hepatic fibrosis; format: in vivo; conditions: vs CCl4 vehicle
Source text: Mouse model generation and treatment. C57Bl/6 mice (6-week-old, males) were purchased from Jackson Laboratories and were housed under specific pathogen-free conditions. All experiment protocols were approved by the Institutional Animal Care and Use Committee (IACUC) of Pleiogenix, or its research partners. The mice were acclimated for a minimum of seven days prior to initiation of treatment (Sanyal A J et al., N Engl J Med, (2010), 362:1675-85). The mice were fed Purina normal chow and drinking water ad libitum during the acclimation period. After acclimation, the mice were randomized based on body weight (bw). A total of 22 mice were used; and treated as described in Table 1. Briefly, on day 0, mice were treated according to Table 4.
Liver fibrosis was induced as previously described (Nesto R W et al., Circulation, (2003), 108:2941-8). Carbon tetrachloride (CCl4), formulated in mineral oil, was administered twice per week i.p. at 1 μl/gram body weight throughout the study duration (8 wks). Indeglitazar was administered daily by oral gavage at 30 mg/kg body weight throughout the study duration (8 wks). Mice were observed daily for clinical signs. Any observations noted outside of the scheduled observations were documented as unscheduled. Assessments included, but were not be limited to, assessment of activity, posture, respiration, emesis, seizure, hydration status, injection site irritation, and overall body condition. The absence or presence of findings were recorded.
Individual body weights were recorded on all animals prior to the initiation of the study and weekly body weights were recorded. Blood was collected and plasma was measured for alanine aminotransferase (ALT) and aspartate aminotransferase (AST) and on weeks 0 (baseline), 4, and wk 8 (terminal). At the end of the study, liver necropsy was performed including weighing and processing for histology, and frozen at −80° C. for the following downstream analyses: Liver histopathology: hematoxyline and eosin (H&E) staining (Kumar P et al., PLOS ONE, (2014), 9:e110405); Sirius Red staining for fibrosis (Nesto R W et al., Circulation, (2003), 108:2941-8). Biochemical markers of human hepatic fibrosis and anti-fibrotic adipokine, adiponectin: hepatic hydroxyproline (Nesto R W et al., Circulation, (2003), 108:2941-8); plasma TGFβ1 (Fischer A H et al., CSH Protoc, (2008), 2008:pdb.prot4986); adiponectin (Guo J C et al., Zhonghua Shi Yan He Lin Chuang Bing Du Xue Za Zhi, (2008), 22:354-7).
[…]

[3] = 30 mg/kg/day oral gavage, 8 wks, male mice

Structure (SMILES): COc1ccc(S(=O)(=O)n2cc(CCC(=O)O)c3cc(OC)ccc32)cc1 [Indeglitazar, 3-[5-methoxy-1-(4-methoxybenzenesulfonyl)-1H-indol-3-yl]-propanoic acid]
- ability to cross the blood-brain barrier [1]: ~15%
- effect on liver hydroxyproline [2, 3]: significantly reduces
- effect on plasma TGF-β1 [2, 3]: significantly reduces
- effect on plasma adiponectin [2, 3]: significantly increases
- magnitude of increase of plasma adiponectin ([2]; 30 mg/kg/day): approximately 125%
- magnitude of reduction of hydroxyproline ([2]; 30 mg/kg/day): approximately 25%
- magnitude of reduction of plasma TGFβ1 ([2]; 30 mg/kg/day): approximately 30%
